Assay results taken from patent publication US10933032B2, “Methods for the treatment of cancer using coenzyme Q10 combination therapies” (Berg LLC, priority 2013, dated 2021).

Tests used:
[1] = tested on: normal cells, including keratinocytes and dermal fibroblasts; assay: Proliferation and migration of normal cells; assay type: cell-based
[2] = tested on: tumors; conditions: Example 8, written in present tense
Description: In an in vivo tumor xenograft model, mice are implanted with tumors. For example, MIAPaCa-2 pancreatic cancer cells suspended in [sequence] are injected into NSG mice. Alternatively, other tumor cell lines, e.g., triple negative breast cancer, hepatic cancer, prostate cancer, melanoma, sarcoma, carcinoma cell lines, are used in the xenograft mouse model.
Various sequential regimens and combinations of CoQ10 and chemotherapeutic agents are tested for the ability to reduce tumor burden and/or reduce tumor metastasis. […] For example, in some animals, 2 or more cycles of CoQ10 are administered in Treatment 1 prior to one or more cycles of the chemotherapeutic agent in Treatment 2. In some animals, one cycle of CoQ10 is administered in Treatment 1 prior to administration of multiple cycles of chemotherapy in Treatment 2.
Tumor volumes are monitored using routine methods, e.g., calipers, imaging analysis. At the end of the study, tumors are excised and analyzed for using routine methods, e.g., for size (e.g., weight and volume), histological characteristics, grade, and vascularization.

[3] = tested on: PC3; assay: Induction of early apoptosis (Bcl-2, annexin V, or caspase activation); assay type: cell-based; conditions: PROSTATE: PC3
Description: The effects of Coenzyme Q10 treatment on a variety of oncogenic and normal cell lines were examined and compared. The sensitivity of cells to Coenzyme Q10 was assessed by monitoring induction of apoptosis. CoQ10 treatment of cells was carried out as described in detail below in the Materials and Methods. Induction of apoptosis was assessed in the treated cells by monitoring indicators of early apoptosis (e.g., Bcl-2 expression, caspase activation and by using annexin V assays) as described below. From these studies, the minimal CoQ10 dosage, e.g., concentration of CoQ10 and time of treatment, required to induce apoptosis in the panel of cell lines was determined.
Cells were cultured in T-75 flasks with relevant medium supplemented with 10% Fetal Bovine Serum (FBS), 1% PSA (penicillin, streptomycin, amphotericin B) (Invitrogen and Cellgro) in a 37° C. incubator with 5% CO2 levels until 70-80% confluence was reached. To harvest cells for treatment, flasks were primed with 1 mL Trypsin, aspirated, trypsinized with an additional 3 mL, and incubated at 37° C. for 3-5 minutes. Cells were then neutralized with an equal volume of media and the subsequent solution was centrifuged at […] for 8 minutes. The supernatant was aspirated and the cells were resuspended with 8.5 ml of media. A mixture of 500 ul of the resuspension and 9.5 ml of […] was read twice by a coulter counter and the appropriate number of cells to be seeded into each dish was determined. Control and concentration ranging from 0-200 μM groups were examined in triplicate. From a 500 μM CoQ-10 stock solution, serial dilutions were performed to achieve desired experimental concentration in appropriate dishes. Dishes were incubated in a 37° C. incubator with 5% CO2 levels for 0-72 hours depending on cell type and experimental protocol.
Following cell treatment incubation period was complete, protein isolation was performed. Dishes of all treatment groups were washed twice with 2 ml, and once with 1 ml of ice cold 1× Phosphate Buffered Saline (PBS). The PBS was aspirated from the dishes after the initial 2 washes only. Cells were gently scraped and collected into microcentrifuge tubes using the final volume from the third wash and centrifuged at 10,000 rpm for 10 minutes. After centrifugation, the supernatant was aspirated and the pellet was lysed with 50 uL of lysis buffer (1 uL of protease and phosphotase inhibitor for every 100 uL of lysis buffer). Samples were then frozen overnight at −20° C.
After the cell treatment incubation period was complete, protein isolation was performed. Flasks of all treatment groups were washed twice with 5 mL, and once with 3 mL of ice cold 1×PBS. The PBS was aspirated from the flasks after the first 2 washes only. Cells were gently scraped and collected into 15 mL centrifuge tubes using the final volume from the third wash and centrifuged for at 10,000 rpm for 10 minutes. After centrifugation, the supernatant was aspirated and the pellet was lysed with an appropriate amount of lysis buffer (1 uL of protease and phosphotase inhibitor for every 100 uL of lysis buffer). Lysis buffer volume was dependent on pellet size. Samples were transferred in microcentrifuge tubes and frozen overnight at −20° C.
Samples were thawed at […] and sonicated to ensure homogenization the day following protein isolation. Protein quantification was performed using the micro BCA protein assay kit (Pierce). To prepare samples for Immuno-blotting, a 1:19 solution of betamercaptoethanol (Sigma) to sample buffer (Bio-Rad) was prepared. Samples were diluted 1:1 with the betamercaptoethanol-sample buffer solution, boiled at 95° C. for 5 minutes, and frozen overnight at −20° C.
The volume of sample to load per well was determined using the raw mean concentration of protein obtained from the BCA protein assay. Approximately 30-60 μg of protein were loaded for each treatment time point. […]

[4] = Prior experiments, signs of toxicity; assay type: in vivo; conditions: three times per week at up to 50 mg/kg
Description: Sterile CoQ10 formula and the suitable sterile control is administered intravenously. CoQ10 doses are administered based on ongoing results. […] The effect of CoQ10 is compared with other chemotherapy regimens specific for each cancer line. Another arm of the study evaluates synergistic effects between CoQ10 and other chemotherapeutic agents.

## COC1=C(OC)C(=O)C(C/C=C(\C)CC/C=C(\C)CC/C=C(\C)CC/C=C(\C)CC/C=C(\C)CC/C=C(\C)CC/C=C(\C)CC/C=C(\C)CC/C=C(\C)CCC=C(C)C)=C(C)C1=O [CoQ10, Coenzyme Q10]
[1]
  Proliferation and migration in normal cells: increased proliferation and migration
[2]
  Efficacy (tumor burden), one or more cycles of CoQ10 prior to a chemotherapeutic agent: more effective than co-administration of CoQ10 with a chemotherapeutic agent or a chemotherapeutic agent alone
[3]
  Indication of Early apoptosis (Bcl-2, annexin V, or caspase activation): Very Strong
  Minimal CoQ10 concentration required for induction of early apoptosis, Concentration: 25 µM
  Minimal treatment time required for induction of early apoptosis, Time: 24 h
[4]
  Signs of toxicity: no signs of toxicity
